Measured values reported in patent US12678446B2 (PFIZER INC., priority 2020, dated 2026).

What was measured:
[1] = system: RSV (RSV A2 ECACC, 0709161v); assay: RSV plaque reduction assay; assay type: cell-based, respiratory syncytial virus; conditions: human respiratory syncytial virus, HepG2, read-out: RSV A2 Plaque EC50, RSV A2 in Hep-G2 cells; mean of at least two experiments unless noted (n = 1)
Experimental: Compounds w ere subjected to RSV plaque reduction assays according to the following protocol.
Hep-G2 cells (ECACC, 85011430) were passaged in flasks and seeded in 24-well plates in DMEM containing antibiotics and supplemented with 10% FBS. During inoculation and subsequent incubation, cells were cultured in DMEM containing 2% FBS. 100 plaque forming unit/well of RSV (RSV A2 ECACC, 0709161v) was mixed with eight serial dilutions of compound. Subsequently, 100 μL of the virus/compound mixtures was added to confluent Hep-G2 cell monolayers. The cells and virus/compound mixtures were incubated at 37° C. in a humidified 5% CO2 incubator for 2 h prior to removal of the inoculum and addition of 1 mL of overlay (DMEM containing 2% FBS and 0.8% CMC) containing compound dilutions. The cells and were incubated at 37° C. in a humidified 5% CO2 incubator for 2 days.
Cells were washed with PBS before adding 75/25% v/v EtOH MeOH, for 3 min. Fixative was removed and plates were washed with PBS. A pre-titrated amount of the primary antibody was added in 200 μL PBS/2% milk powder, and plates incubated for 90 min at 37° C. The plates were washed 3 times with PBS/0.05% Tween20 before addition of rabbit anti-goat horse radish peroxidase in 200 μL PBS/2% milk powder, and incubated for 1 h at 37° C. Following three wash steps with PBS/0.05% Tween20, 200 μL ready-to-use TrueBlue was added and plates were incubated at rt for 10-15 min before washing with water. After removal of water, plates were air-dried in the dark.
Plates were scanned and analysed using the Immunospot S6 Macro analyser, which is equipped with BioSpot analysis software for counting immunostained plaques (virospots). Plaque counts were used to calculate % infection relative to the mean of the plaque count in the virus control wells for RSV. […] Unless otherwise noted, plaque EC50 and cell toxicity CC50 values are a mean of at least two experiments and figures are rounded to whole units.

cell toxicity CC50 = assay type: cell-based; conditions: human; Hep-G2 cells; mean of at least two experiments; read-out: Cell Cytotoxicity CC50

Structure (SMILES): C[C@@H]1CCn2nc(-c3ccc(CN(C)C)cc3F)c(C(=O)N[C@H]3N=C(c4ccccc4)c4cccc(F)c4NC3=O)c2O1 [Example 170, (5R)-2-[4-[(Dimethylamino)methyl]-2-fluorophenyl]-N-[(3S)-9-fluoro-2-oxo-5-phenyl-1,3-dihydro-1,4-benzodiazepin-3-yl]-5-methyl-6,7-dihydro-5H-pyrazolo[5,1-b][1,3]oxazine-3-carboxamide]
- EC50 [1]: 60 nM
- CC50 (cell toxicity CC50): > 25 µM

Structure (SMILES): CC1(C)CCn2nc(-c3ccccc3F)c(C(=O)N[C@H]3N=C(c4ccccc4)c4cccc(F)c4NC3=O)c2O1 [Example 5, N-[(3S)-9-fluoro-2-oxo-5-phenyl-2,3-dihydro-1H-1,4-benzodiazepin-3-yl]-2-(2-fluorophenyl)-5,5-dim ethyl-5H,6H,7H-pyrazolo[3,2-b][1,3]oxazine-3 carboxamide]
- EC50 [1]: 54 nM
- CC50 (cell toxicity CC50): > 25 µM

Structure (SMILES): O=C(N[C@H]1N=C(c2ccccc2)c2cccc(F)c2NC1=O)c1c(-c2ccccc2F)nn2c1OCC(Cn1cccn1)C2 (stereo partly drawn) [Example 124, N-[(3S)-9-fluoro-2-oxo-5-phenyl-1,3-dihydro-1,4-benzodiazepin-3-yl]-2-(2-fluorophenyl)-6-(pyrazol-1-ylmethyl)-6,7-dihydro-5H-pyrazolo[5,1-b][1,3]oxazine-3-carboxamide]
- EC50 [1]: 76 nM
- CC50 (cell toxicity CC50): > 25 µM

Structure (SMILES): C[C@@H]1CCn2nc(-c3cnn(C)c3)c(C(=O)N[C@H]3N=C(c4ccccc4)c4cccc(F)c4NC3=O)c2O1 [Example 98, (5R)-N-[(3S)-9-fluoro-2-oxo-5-phenyl-1,3-dihydro-1,4-benzodiazepin-3-yl]-5-methyl-2-(1-methylpyrazol-4-yl)-6,7-dihydro-5H-pyrazolo[5,1-b][1,3]oxazine-3-carboxamide]
- EC50 [1]: 80 nM
- CC50 (cell toxicity CC50): > 25 µM

Structure (SMILES): CN(CC1COc2c(C(=O)N[C@H]3N=C(c4ccccc4)c4cccc(F)c4NC3=O)c(-c3ccccc3F)nn2C1)C1CCOCC1 (stereo partly drawn) [Example 168, N-[(3S)-9-fluoro-2-oxo-5-phenyl-1,3-dihydro-1,4-benzodiazepin-3-yl]-2-(2-fluorophenyl)-6-[[methyl(oxan-4-yl)amino]methyl]-6,7-dihydro-5H-pyrazolo[5,1-b][1,3]oxazine-3-carboxamide]
- EC50 [1]: 104 nM
- CC50 (cell toxicity CC50): > 25 µM

Structure (SMILES): C[C@@H]1CCn2nc(-c3ccc(N4CC5(COC5)C4)nc3F)c(C(=O)N[C@H]3N=C(c4ccccc4)c4cccc(F)c4NC3=O)c2O1 (single isomer, unassigned) [Example 91]
- EC50 [1]: 239 nM
- CC50 (cell toxicity CC50): > 25 µM

Structure (SMILES): O=C(N[C@H]1N=C(c2ccccc2)c2cccc(F)c2NC1=O)c1c(-c2ccccc2F)nn2c1OCC(CN1CCC(F)(F)C1)C2 (stereo partly drawn) [Example 186, 6-[(3,3-Difluoropyrrolidin-1-yl)methyl]-N-[(3S)-9-fluoro-2-oxo-5-phenyl-1,3-dihydro-1,4-benzodiazepin-3-yl]-2-(2-fluorophenyl)-6,7-dihydro-5H-pyrazolo [5,1-b][1,3]oxazine-3-carboxamide]
- EC50 [1]: 59 nM
- CC50 (cell toxicity CC50): > 25 µM

Structure (SMILES): CC(C)Nc1ccc(-c2nn3c(c2C(=O)N[C@H]2N=C(c4ccccc4)c4ccccc4NC2=O)OCC2(CC2)C3)cn1 [Example 178, 2-[6-(Propan-2-ylamino)pyridin-3-yl]-N-[(3S)-2-oxo-5-phenyl-1,3-dihydro-1,4-benzodiazepin-3-yl]spiro[5,7-dihydropyrazolo[5,1-b][1,3]oxazine-6,1′-cyclopropane]-3-carboxamide]
- EC50 [1]: 75 nM
- CC50 (cell toxicity CC50): > 25 µM

Structure (SMILES): CCc1ncc(-c2nn3c(c2C(=O)N[C@H]2N=C(c4ccccc4)c4ccccc4NC2=O)O[C@H](C)CC3)cn1 [Example 59, (5R)-2-(2-Ethylpyrimidin-5-yl)-5-methyl-N-[(3S)-2-oxo-5-phenyl-1,3-dihydro-1,4-benzodiazepin-3-yl]-6,7-dihydro-5H-pyrazolo[5,1-b][1,3]oxazine-3-carboxamide]
- EC50 [1]: 309 nM
- CC50 (cell toxicity CC50): > 25 µM

Structure (SMILES): C[C@@H]1CCn2nc(-c3ccc(F)cc3F)c(C(=O)N[C@H]3N=C(c4ccccc4)c4cccc(F)c4NC3=O)c2O1 [Example 82, (5R)-2-(2,4-Difluorophenyl)-5-methyl-N-[(3S)-9-fluoro-2-oxo-5-phenyl-1,3-dihydro-1,4-benzodiazepin-3-yl]-6,7-dihydro-5H-pyrazolo[5,1-b][1,3]oxazine-3-carboxamide]
- EC50 [1]: 31 nM
- CC50 (cell toxicity CC50): > 25 µM

Structure (SMILES): CCc1ccc(-c2nn3c(c2C(=O)N[C@H]2N=C(c4ccccc4)c4cccc(F)c4NC2=O)O[C@H](C)CC3)c(F)c1 [Example 75, (5R)-2-(4-Ethyl-2-fluorophenyl)-5-methyl-N-[(3S)-9-fluoro-2-oxo-5-phenyl-1,3-dihydro-1,4-benzodiazepin-3-yl]-6,7-dihydro-5H-pyrazolo[5,1-b][1,3]oxazine-3-carboxamide]
- EC50 [1]: 158 nM
- CC50 (cell toxicity CC50): > 25 µM

Structure (SMILES): C[C@@H]1CCn2nc(-c3ccc(N4CCOCC4)nc3)c(C(=O)N[C@H]3N=C(c4ccccc4)c4ccccc4NC3=O)c2O1 [Example 55, (5R)-5-Methyl-2-(6-morpholino-3-pyridyl)-N-[(3S)-2-oxo-5-phenyl-1,3-dihydro-1,4-benzodiazepin-3-yl]-6,7-dihydro-5H-pyrazolo[5,1-b][1,3]oxazine-3-carboxamide]
- EC50 [1]: 246 nM
- CC50 (cell toxicity CC50): > 25 µM

Structure (SMILES): Cn1ncc2c(-c3nn4c(c3C(=O)N[C@H]3N=C(c5ccccc5)c5cccc(F)c5NC3=O)OCCC4)cccc21 [Example 147, N-[(3S)-9-fluoro-2-oxo-5-phenyl-1,3-dihydro-1,4-benzodiazepin-3-yl]-2-(1-methylindazol-4-yl)-6,7-dihydro-5H-pyrazolo[5,1-b][1,3]oxazine-3-carboxamide]
- EC50 [1]: 137 nM
- CC50 (cell toxicity CC50): > 25 µM

Structure (SMILES): CC1(C)COc2c(C(=O)N[C@H]3N=C(c4ccccc4)c4cccc(F)c4NC3=O)c(-c3ccccc3F)nn2C1 [Example 41, N-[(3S)-9-fluoro-2-oxo-5-phenyl-1,3-dihydro-1,4-benzodiazepin-3-yl]-2-(2-fluorophenyl)-6,6-dimethyl-5,7-dihydropyrazolo[5,1-b][1,3]oxazine-3-carboxamide]
- EC50 [1]: 29 nM
- CC50 (cell toxicity CC50): > 25 µM

Structure (SMILES): CC1Cn2nc(-c3ccccc3F)c(C(=O)N[C@H]3N=C(c4ccccc4)c4cccc(F)c4NC3=O)c2O1 (stereo in doubt) [Example 163, (2S)-N-[(3S)-9-fluoro-2-oxo-5-phenyl-1,3-dihydro-1,4-benzodiazepin-3-yl]-6-(2-fluorophenyl)-2-methyl-2,3-dihydropyrazolo[5,1-b][1,3]oxazole-7-carboxamide]
- EC50 [1]: 76 nM
- CC50 (cell toxicity CC50): > 25 µM

Structure (SMILES): C[C@@H]1CCn2nc(-c3ccc(N4C[C@H]5C[C@@H]4CO5)nc3)c(C(=O)N[C@H]3N=C(c4ccccc4)c4cccc(F)c4NC3=O)c2O1 [Example 86, (5R)-5-Methyl-N-[(3S)-9-fluoro-2-oxo-5-phenyl-1,3-dihydro-1,4-benzodiazepin-3-yl]-2-[6-[(1R,4R)-2-oxa-5-azabicyclo[2.2.1]heptan-5-yl]pyridin-3-yl]-6,7-dihydro-5H-pyrazolo[5,1-b][1,3]oxazine-3-carboxamide]
- EC50 [1]: 44 nM
- CC50 (cell toxicity CC50): > 25 µM

Structure (SMILES): CN(C)CC1COc2c(C(=O)N[C@H]3N=C(c4ccccc4)c4cccc(F)c4NC3=O)c(-c3ccccc3F)nn2C1 (mixture of isomers) [Example 171, 6-[(Dimethylamino)methyl]-N-[(3S)-9-fluoro-2-oxo-5-phenyl-1,3-dihydro-1,4-benzodiazepin-3-yl]-2-(2-fluorophenyl)-6,7-dihydro-5H-pyrazolo[5,1-b][1,3]oxazine-3-carboxamide]
- EC50 [1]: 59 nM
- CC50 (cell toxicity CC50): > 25 µM

Structure (SMILES): CS(=O)(=O)c1ccc(-c2nn3c(c2C(=O)N[C@H]2N=C(c4ccccc4)c4cccc(F)c4NC2=O)OCCC3)c(F)c1 [Example 135, 2-(2-Fluoro-4-methylsulfonylphenyl)-N-[(3S)-9-fluoro-2-oxo-5-phenyl-1,3-dihydro-1,4-benzodiazepin-3-yl]-6,7-dihydro-5H-pyrazolo[5,1-b][1,3]oxazine-3-carboxamide]
- EC50 [1]: 15 nM
- CC50 (cell toxicity CC50): > 25 µM

Structure (SMILES): CCc1ccc(-c2nn3c(c2C(=O)N[C@H]2N=C(c4ccccc4)c4ccccc4NC2=O)OCC2(CC2)C3)cn1 [Example 180, 2-(6-Ethylpyridin-3-yl)-N-[(3S)-2-oxo-5-phenyl-1,3-dihydro-1,4-benzodiazepin-3-yl]spiro[5,7-dihydropyrazolo[5,1-b][1,3]oxazine-6,1′-cyclopropane]-3-carboxamide]
- EC50 [1]: 75 nM
- CC50 (cell toxicity CC50): > 25 µM

Structure (SMILES): NC(=O)c1ccc(-c2nn3c(c2C(=O)N[C@H]2N=C(c4ccccc4)c4cccc(F)c4NC2=O)OCCC3)c(F)c1 [Example 142, 2-(4-Carbamoyl-2-fluorophenyl)-N-[(3S)-9-fluoro-2-oxo-5-phenyl-1,3-dihydro-1,4-benzodiazepin-3-yl]-6,7-dihydro-5H-pyrazolo[5,1-b][1,3]oxazine-3-carboxamide]
- EC50 [1]: 282 nM
- CC50 (cell toxicity CC50): > 25 µM
